Target: T1, vanilloid receptor (Rattus norvegicus, UniProt O35433)
T1 construct: DRG nerve cells from the primary culture of 2 days were equilibrated; endogenous in cells; host or cells: primary culture of dorsal root ganglion neurons from neonatal SD rats
Test: 45Ca influx test in cultured neonatal rat DRG neurons, inhibition of capsaicin response
Assay type: cell-based
Settings: neonatal rat DRG neurons, capsaicin 0.5 μM, 45Ca influx; read-out: Antagonist Calcium Uptake Test (IC50)
Summary of the method: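 Neonatal SD rat DRG neurons, cultured 2 days with NGF (200 ng/ml) and Ara-C, were washed in HEPES (10 mM, pH 7.4)-buffered Ca/Mg-free HBSS. Test compound was added with capsaicin (final 0.5 μM) and 45Ca (10 μCi/ml) for 10 min at room temperature; 45Ca uptake counted by scintillation after SDS elution.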

T1 sequence (O35433 whole entry): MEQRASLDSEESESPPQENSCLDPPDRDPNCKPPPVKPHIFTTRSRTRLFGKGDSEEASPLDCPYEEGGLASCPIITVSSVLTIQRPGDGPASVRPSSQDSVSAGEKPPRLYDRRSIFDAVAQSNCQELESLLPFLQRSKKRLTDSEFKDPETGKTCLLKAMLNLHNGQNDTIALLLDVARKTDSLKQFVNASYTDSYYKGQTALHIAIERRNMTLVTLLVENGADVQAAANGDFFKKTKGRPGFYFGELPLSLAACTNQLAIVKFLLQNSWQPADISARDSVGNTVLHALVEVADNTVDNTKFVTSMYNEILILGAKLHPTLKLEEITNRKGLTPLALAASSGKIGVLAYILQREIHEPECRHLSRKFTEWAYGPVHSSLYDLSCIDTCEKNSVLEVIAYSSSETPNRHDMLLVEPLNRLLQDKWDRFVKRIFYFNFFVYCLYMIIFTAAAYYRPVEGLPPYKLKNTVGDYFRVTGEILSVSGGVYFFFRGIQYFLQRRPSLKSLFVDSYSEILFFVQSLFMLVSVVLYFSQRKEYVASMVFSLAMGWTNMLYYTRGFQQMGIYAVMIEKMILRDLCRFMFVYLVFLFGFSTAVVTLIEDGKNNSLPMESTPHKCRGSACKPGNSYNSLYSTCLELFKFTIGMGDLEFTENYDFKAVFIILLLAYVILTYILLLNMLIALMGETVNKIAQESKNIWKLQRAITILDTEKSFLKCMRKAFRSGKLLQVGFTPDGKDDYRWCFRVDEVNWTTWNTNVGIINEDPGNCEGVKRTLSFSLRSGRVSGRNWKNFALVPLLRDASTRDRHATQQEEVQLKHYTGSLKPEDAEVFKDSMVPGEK

Compound | IC50
C[C@@H](NC(=O)/C=C/c1ccc(C(F)(F)F)nc1CCc1ccccc1)c1cc(F)c(NS(C)(=O)=O)c(F)c1 [Example 236, (R)—N-[1-(3,5-Difluoro-4-methanesulfonylamino-phenyl)-ethyl]-3-(2-phenethyl-6-trifluoromethyl-pyridin-3-yl)-acrylamide] | 49 nM
CCNc1nc(C(F)(F)F)ccc1/C=C/C(=O)NCc1cc(F)c(NS(C)(=O)=O)c(F)c1 [Example 257, N-(3,5-Difluoro-4-methanesulfonylamino-benzyl)-3-(2-ethylamino-6-trifluoromethyl-pyridin-3-yl)-acrylamide] | 56 nM
CCCCNc1nc(C(F)(F)F)ccc1/C=C/C(=O)N[C@@H](C)c1cc(F)c(NS(C)(=O)=O)c(F)c1 [Example 240, (S)-3-(2-Butylamino-6-trifluoromethyl-pyridin-3-yl)-N-[(1S)-(3,5-difluoro-4-methanesulfonylamino-phenyl)-ethyl]-acrylamide] | 200 nM
CCCSc1nc(C(F)(F)F)ccc1/C=C/C(=O)NCc1ccc(NS(C)(=O)=O)c(C)c1 [Example 186, N-(4-Methanesulfonylamino-3-methyl-benzyl)-3-(2-propylthio-6-trifluoromethyl-pyridin-3-yl)-acrylamide] | 510 nM
CCNc1nc(C(F)(F)F)ccc1/C=C/C(=O)NCc1cc(F)c(NS(C)(=O)=O)cc1F [Example 255, N-(2,5-Difluoro-4-methanesulfonylamino-benzyl)-3-(2-ethylamino-6-trifluoromethyl)-pyridin-3-yl-acrylamide] | 130 nM
C#Cc1cc(CNC(=O)/C=C/c2ccc(C(F)(F)F)nc2SCC)cc(F)c1NS(C)(=O)=O [Example 171, 3-(2-Ethylthio-6-trifluoromethyl-pyridin-3-yl)-N-(3-ethynyl-5-fluoro-4-methanesulfonylamino-benzyl)-acrylamide] | 180 nM
C#Cc1cc(CNC(=O)/C=C/c2ccc(C(F)(F)F)nc2NCCCC)cc(F)c1NS(C)(=O)=O [Example 72, 3-(2-Butylamino-6-trifluoromethyl-pyridin-3-yl)-N-(3-ethynyl-5-fluoro-4-methanesulfonylamino-benzyl)-acrylamide] | 160 nM
CS(=O)(=O)Nc1ccc(CNC(=O)/C=C/c2ccc(C(F)(F)F)nc2-c2cccc(F)c2)cc1F [Example 179, N-(3-Fluoro-4-methanesulfonylamino-benzyl)-3-[2-(3-fluoro-phenyl)-6-trifluoromethyl-pyridin-3-yl]-acrylamide] | 780 nM
C#Cc1cc(CNC(=O)C#Cc2ccc(C(F)(F)F)nc2NCCCC)cc(F)c1NS(C)(=O)=O [Example 260, 3-(2-Butylamino-6-trifluoromethyl-pyridin-3-yl)-propynoic acid, 3-ethynyl-5-fluoro-4-methanesulfonylamino-benzylamide] | 810 nM
C#Cc1cc(CNC(=O)/C=C/c2ccc(C(F)(F)F)nc2Oc2ccccc2)cc(F)c1NS(C)(=O)=O [Example 78, N-(3-Ethynyl-5-fluoro-4-methanesulfonylamino-benzyl)-3-(2-phenoxy-6-trifluoromethyl-pyridin-3-yl)-acrylamide] | 120 nM
C#Cc1cc(CNC(=O)/C=C/c2ccc(C(F)(F)F)nc2N2CCCC2)cc(F)c1NS(C)(=O)=O [Example 62, N-(3-Ethynyl-5-fluoro-4-methanesulfonylamino-benzyl)-3-(2-pyrrolidin-1-yl-6-trifluoromethyl-pyridin-3-yl)-acrylamide] | 260 nM
CCC(C)Oc1nc(C(F)(F)F)ccc1/C=C/C(=O)NCc1ccc(NS(C)(=O)=O)c(C)c1 (stereo not drawn) [Example 162, 3-(2-sec-Butoxy-6-trifluoromethyl-pyridin-3-yl)-N-(4-methanesulfonylamino-3-methyl-benzyl)-acrylamide] | 120 nM
Cc1cc(CNC(=O)/C=C/c2ccc(C(F)(F)F)nc2-c2cccc(F)c2)cc(F)c1NS(C)(=O)=O [Example 180, N-(3-Fluoro-4-methanesulfonylamino-5-methyl-benzyl)-3-[2-(3-fluoro-phenyl)-6-trifluoromethyl-pyridin-3-yl]-acrylamide] | 460 nM
C#Cc1cc(CNC(=O)/C=C/c2ccc(C(F)(F)F)nc2CCCCC)cc(F)c1NS(C)(=O)=O [Example 197, N-(3-Ethynyl-5-fluoro-4-methanesulfonylamino-benzyl)-3-(2-pentyl-6-trifluoromethyl)-pyridin-3-yl-acrylamide] | 65 nM
C#Cc1cc(CNC(=O)/C=C/c2ccc(C(F)(F)F)nc2OC(C)C)cc(F)c1NS(C)(=O)=O [Example 70, 3-(2-Isopropoxy-6-trifluoromethyl-pyridin-3-yl)-N-(3-ethynyl-5-fluoro-4-methanesulfonylamino-benzyl)-acrylamide] | 130 nM
C=Cc1cc(CNC(=O)/C=C/c2ccc(C(F)(F)F)nc2NCC)cc(F)c1NS(C)(=O)=O [Example 250, 3-(2-Ethylamino-6-trifluoromethyl-pyridin-3-yl)-N-(3-fluoro-4-methanesulfonylamino-5-vinyl-benzyl)-acrylamide] | 32 nM
CC(C)(C)c1ccc(/C=C/C(=O)NCc2cc(F)c(NS(C)(=O)=O)c(F)c2)cn1 [Example 39, 3-(6-tert-Butyl-pyridin-3-yl)-N-(3,5-difluoro-4-methanesulfonylamino-benzyl)-acrylamide] | 1600 nM
CS(=O)(=O)Nc1ccc(CNC(=O)/C=C/c2ccc(C(F)(F)F)nc2Oc2ccccc2)cc1F [Example 132, N-(3-Fluoro-4-methanesulfonylamino-benzyl)-3-(2-phenoxy-6-trifluoromethyl-pyridin-3-yl)-acrylamide] | > 3000 nM
Cc1cc(CNC(=O)/C=C/c2ccc(C(F)(F)F)nc2-c2cccc(F)c2)ccc1NS(C)(=O)=O [Example 182, 3-[2-(3-Fluoro-phenyl)-6-trifluoromethyl-pyridin-3-yl]-N-(4-methanesulfonylamino-3-methyl-benzyl)-acrylamide] | 400 nM
Cc1cc(CNC(=O)/C=C/c2ccc(C(F)(F)F)nc2C(C)C)ccc1NS(C)(=O)=O [Example 233, N-(4-methanesulfonylamino-3-methyl-benzyl)-3-(2-isopropyl-6-trifluoromethyl-pyridin-3-yl)-acrylamide] | 80 nM
C#Cc1cc(CNC(=O)/C=C/c2ccc(C(F)(F)F)nc2NCCC)cc(F)c1NS(C)(=O)=O [Example 221, N-(3-Ethynyl-5-fluoro-4-methanesulfonylamino-benzyl)-3-(2-propylamino-6-trifluoromethyl-pyridin-3-yl)-acrylamide] | 23 nM
CCC(C)c1nc(C(F)(F)F)ccc1/C=C/C(=O)N[C@H](C)c1ccc(NS(C)(=O)=O)c(F)c1 (stereo partly drawn) [Example 243, (R)-3-(2-sec-Butyl-6-trifluoromethyl-pyridin-3-yl)-N-[1-(3-fluoro-4-methanesulfonylamino-phenyl)-ethyl]-acrylamide] | 41 nM
CS(=O)(=O)Nc1ccc(CNC(=O)COc2ccc(C(F)(F)F)nc2)cc1F [Example 32, N-(3-Fluoro-4-methanesulfonylamino-benzyl)-2-(6-trifluoromethyl-pyridin-3-yloxy)-acetamide] | > 10000 nM
C=CS(=O)(=O)Nc1ccc(CNC(=O)/C=C/c2ccc(C(F)(F)F)nc2CCc2ccccc2)cc1 [Example 268, N-(4-Ethenesulfonylamino-benzyl)-3-(2-phenethyl-6-trifluoromethyl-pyridin-3-yl)-acrylamide] | 2900 nM

Source: patent publication US7858621B2 (Amorepacific Corporation, priority 2006, dated 2010)
